Columns and labels:
Assay in all cases: relative viability (nuclei count vs DMSO), 5 days (fraction); higher = more cells survive
[1] = test system: 201T
Summary of the method: (§1)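 For relative viability, nuclei counts in treated wells were divided by those in vehicle wells. Lung cancer cell lines had been pin-tool dosed in 1536-well plates the day after seeding and cultured for 5 days, then fixed and stained in one step (final 0.05% Triton X-100, 1% formaldehyde, 1 ug/ml Hoechst) and imaged at 4×. Doses were one drug alone or a fixed anchor-drug dose plus five library-drug doses (not always all listed) in √10 steps, and values are duplicate-plate medians.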

[2] = test system: ABC-1
Summary of the method: as §1

[3] = test system: BEN
Summary of the method: as §1

[4] = test system: CAL-12T
Summary of the method: as §1

[5] = test system: COR-L 105
Summary of the method: as §1

[6] = test system: COR-L23
Summary of the method: as §1

[7] = test system: EKVX
Summary of the method: as §1

[8] = test system: HARA
Summary of the method: as §1

[9] = test system: HCC-366
Summary of the method: as §1

[10] = test system: LK-2
Summary of the method: as §1

[11] = test system: LU99A
Summary of the method: as §1

[12] = test system: NCI-H1437
Summary of the method: as §1

[13] = test system: NCI-H1650
Summary of the method: as §1

[14] = test system: NCI-H1666
Summary of the method: as §1

[15] = test system: NCI-H2009
Summary of the method: as §1

[16] = test system: NCI-H2023
Summary of the method: as §1

[17] = test system: NCI-H2170
Summary of the method: as §1

[18] = test system: NCI-H3122
Summary of the method: as §1

[19] = test system: NCI-H441
Summary of the method: as §1

[20] = test system: NCI-H661
Summary of the method: as §1

[21] = test system: NCI-H727
Summary of the method: as §1

[22] = test system: NCI-H838
Summary of the method: as §1

[23] = test system: PC-14
Summary of the method: as §1

[24] = test system: SW 900
Summary of the method: as §1

COc1cc(N2CCC(C(N)=O)CC2)ccc1Nc1nc(N)c(Cl)c(Nc2ccccc2S(=O)(=O)C(C)C)n1 [HG-5-88-01] + O=C(c1cc(Cc2n[nH]c(=O)c3ccccc23)ccc1F)N1CCN(C(=O)C2CC2)CC1 [Olaparib] (partner 8 µM)
relative viability ([1]; first compound 0.04 µM): 0.841
relative viability ([1]; first compound 0.1265 µM): 0.844
relative viability ([1]; first compound 1.265 µM): 0.795
relative viability ([1]; first compound 4 µM): 0.831
relative viability ([2]; first compound 0.04 µM): 1
relative viability ([2]; first compound 0.1265 µM): 0.494
relative viability ([2]; first compound 0.4 µM): 0.688
relative viability ([2]; first compound 1.265 µM): 0.686
relative viability ([2]; first compound 4 µM): 0.589
relative viability ([3]; first compound 0.04 µM): 1.2
relative viability ([3]; first compound 0.1265 µM): 1.16
relative viability ([3]; first compound 0.4 µM): 1.13
relative viability ([3]; first compound 1.265 µM): 0.683
relative viability ([3]; first compound 4 µM): 0.993
relative viability ([4]; first compound 0.04 µM): 0.733
relative viability ([4]; first compound 0.1265 µM): 0.779
relative viability ([4]; first compound 0.4 µM): 0.787
relative viability ([4]; first compound 1.265 µM): 0.667
relative viability ([4]; first compound 4 µM): 0.319
relative viability ([5]; first compound 0.04 µM): 0.752
relative viability ([5]; first compound 0.1265 µM): 0.765
relative viability ([5]; first compound 0.4 µM): 0.708
relative viability ([5]; first compound 1.265 µM): 0.692
relative viability ([5]; first compound 4 µM): 0.683
relative viability ([6]; first compound 0.04 µM): 0.336
relative viability ([6]; first compound 0.1265 µM): 0.386
relative viability ([6]; first compound 0.4 µM): 0.28
relative viability ([6]; first compound 1.265 µM): 0.319
relative viability ([6]; first compound 4 µM): 0.246
relative viability ([7]; first compound 0.04 µM): 0.896
relative viability ([7]; first compound 0.1265 µM): 0.955
relative viability ([7]; first compound 0.4 µM): 0.813
relative viability ([7]; first compound 4 µM): 0.633
relative viability ([8]; first compound 0.04 µM): 1.07
relative viability ([8]; first compound 0.1265 µM): 1.02
relative viability ([8]; first compound 0.4 µM): 0.456
relative viability ([8]; first compound 1.265 µM): 0.526
relative viability ([8]; first compound 4 µM): 0.862
relative viability ([9]; first compound 0.04 µM): 0.385
relative viability ([9]; first compound 0.1265 µM): 0.391
relative viability ([9]; first compound 0.4 µM): 0.352
relative viability ([9]; first compound 1.265 µM): 0.39
relative viability ([9]; first compound 4 µM): 0.38
relative viability ([10]; first compound 0.04 µM): 0.941
relative viability ([10]; first compound 0.1265 µM): 0.645
relative viability ([10]; first compound 0.4 µM): 0.718
relative viability ([10]; first compound 4 µM): 0.501
relative viability ([11]; first compound 0.04 µM): 0.266
relative viability ([11]; first compound 0.1265 µM): 0.257
relative viability ([11]; first compound 0.4 µM): 0.208
relative viability ([11]; first compound 1.265 µM): 0.269
relative viability ([11]; first compound 4 µM): 0.315
relative viability ([12]; first compound 0.04 µM): 0.645
relative viability ([12]; first compound 0.1265 µM): 0.609
relative viability ([12]; first compound 0.4 µM): 0.607
relative viability ([12]; first compound 1.265 µM): 0.631
relative viability ([12]; first compound 4 µM): 0.557
relative viability ([13]; first compound 0.04 µM): 0.729
relative viability ([13]; first compound 0.1265 µM): 0.753
relative viability ([13]; first compound 0.4 µM): 0.969
relative viability ([13]; first compound 1.265 µM): 0.65
relative viability ([13]; first compound 4 µM): 0.837
relative viability ([14]; first compound 0.04 µM): 0.759
relative viability ([14]; first compound 0.1265 µM): 0.737
relative viability ([14]; first compound 0.4 µM): 0.816
relative viability ([14]; first compound 1.265 µM): 0.771
relative viability ([14]; first compound 4 µM): 0.684
relative viability ([15]; first compound 0.04 µM): 0.684
relative viability ([15]; first compound 0.1265 µM): 0.651
relative viability ([15]; first compound 0.4 µM): 0.687
relative viability ([15]; first compound 1.265 µM): 0.685
relative viability ([15]; first compound 4 µM): 0.684
relative viability ([16]; first compound 0.04 µM): 0.515
relative viability ([16]; first compound 0.1265 µM): 0.519
relative viability ([16]; first compound 0.4 µM): 0.445
relative viability ([16]; first compound 1.265 µM): 0.441
relative viability ([16]; first compound 4 µM): 0.277
relative viability ([17]; first compound 0.04 µM): 0.64
relative viability ([17]; first compound 0.1265 µM): 0.669
relative viability ([17]; first compound 0.4 µM): 0.605
relative viability ([17]; first compound 1.265 µM): 0.53
relative viability ([17]; first compound 4 µM): 0.545
relative viability ([18]; first compound 0.04 µM): 0.594
relative viability ([18]; first compound 0.1265 µM): 0.403
relative viability ([18]; first compound 0.4 µM): 0.3
relative viability ([18]; first compound 1.265 µM): 0.285
relative viability ([18]; first compound 4 µM): 0.15
relative viability ([19]; first compound 0.04 µM): 0.557
relative viability ([19]; first compound 0.1265 µM): 0.639
relative viability ([19]; first compound 0.4 µM): 0.701
relative viability ([19]; first compound 1.265 µM): 0.574
relative viability ([19]; first compound 4 µM): 0.434
relative viability ([20]; first compound 0.04 µM): 0.707
relative viability ([20]; first compound 0.1265 µM): 0.779
relative viability ([20]; first compound 0.4 µM): 0.8
relative viability ([20]; first compound 1.265 µM): 0.716
relative viability ([20]; first compound 4 µM): 0.845
relative viability ([21]; first compound 0.04 µM): 0.715
relative viability ([21]; first compound 0.1265 µM): 0.705
relative viability ([21]; first compound 0.4 µM): 0.827
relative viability ([21]; first compound 4 µM): 0.572
relative viability ([22]; first compound 0.04 µM): 0.793
relative viability ([22]; first compound 0.1265 µM): 0.766
relative viability ([22]; first compound 0.4 µM): 0.67
relative viability ([22]; first compound 1.265 µM): 0.557
relative viability ([22]; first compound 4 µM): 0.452
relative viability ([23]; first compound 0.04 µM): 0.257
relative viability ([23]; first compound 0.1265 µM): 0.339
relative viability ([23]; first compound 0.4 µM): 0.321
relative viability ([23]; first compound 1.265 µM): 0.307
relative viability ([23]; first compound 4 µM): 0.0752
relative viability ([24]; first compound 0.04 µM): 0.954
relative viability ([24]; first compound 0.1265 µM): 1.06
relative viability ([24]; first compound 0.4 µM): 0.867
relative viability ([24]; first compound 1.265 µM): 0.848
relative viability ([24]; first compound 4 µM): 0.631

Reference: the supplement of paper PMC10307832
